Laboratory results as given in ChEMBL document CHEMBL1157802, “5-Functionalized indazoles as glucocorticoid receptor agonists” (Bioorg Med Chem Lett, 2010).

Tests used:
hERG (KCNH2) = hERG (KCNH2) (Homo sapiens, UniProt Q12809); test: Inhibition of human ERG at 1 uM
Glucocorticoid receptor [1] = biological target: T1, Glucocorticoid receptor (Homo sapiens, UniProt P04150); test: Agonist activity at glucocorticoid receptor in human fibroblast assessed as inhibition of IL-1-beta-induced IL6 production treated 1 hr before IL1-beta challenge measured after 24 hrs by transrepression assay; format: functional
T1 sequence (P04150 whole entry): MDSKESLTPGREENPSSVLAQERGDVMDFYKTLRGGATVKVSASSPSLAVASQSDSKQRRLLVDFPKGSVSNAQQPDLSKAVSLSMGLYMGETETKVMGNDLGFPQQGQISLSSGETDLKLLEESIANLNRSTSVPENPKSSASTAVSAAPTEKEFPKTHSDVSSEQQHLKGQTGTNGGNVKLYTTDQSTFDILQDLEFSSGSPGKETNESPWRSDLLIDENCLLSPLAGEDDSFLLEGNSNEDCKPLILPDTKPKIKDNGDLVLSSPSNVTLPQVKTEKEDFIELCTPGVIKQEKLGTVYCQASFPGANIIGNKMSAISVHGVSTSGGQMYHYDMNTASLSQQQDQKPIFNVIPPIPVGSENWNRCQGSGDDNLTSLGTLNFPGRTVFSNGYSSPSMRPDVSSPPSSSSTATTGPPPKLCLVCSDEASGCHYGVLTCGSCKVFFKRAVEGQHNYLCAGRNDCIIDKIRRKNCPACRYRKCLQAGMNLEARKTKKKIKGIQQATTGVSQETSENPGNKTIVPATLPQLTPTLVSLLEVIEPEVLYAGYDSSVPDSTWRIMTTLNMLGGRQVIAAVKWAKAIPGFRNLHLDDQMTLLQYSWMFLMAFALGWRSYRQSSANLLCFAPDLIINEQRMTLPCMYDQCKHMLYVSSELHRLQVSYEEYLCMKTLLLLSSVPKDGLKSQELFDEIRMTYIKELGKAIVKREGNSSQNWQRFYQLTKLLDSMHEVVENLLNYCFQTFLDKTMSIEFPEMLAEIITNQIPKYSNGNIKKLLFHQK

Glucocorticoid receptor [2] = biological target: T1, Glucocorticoid receptor; test: Agonist activity at glucocorticoid receptor in human MDA-kb2 cells transfected with MMTV-LUC assessed as induction of MMTV-LTR/promoter linked LUC gene by luciferase transactivation assay; format: functional, cell-based; conditions: mda-kb2
[3] = biological target: Voltage-gated inwardly rectifying potassium channel KCNH2 (Homo sapiens, UniProt Q12809); test: Inhibition of human ERG by patch clamp method
Sequence of Voltage-gated inwardly rectifying potassium channel KCNH2 (Q12809 whole entry): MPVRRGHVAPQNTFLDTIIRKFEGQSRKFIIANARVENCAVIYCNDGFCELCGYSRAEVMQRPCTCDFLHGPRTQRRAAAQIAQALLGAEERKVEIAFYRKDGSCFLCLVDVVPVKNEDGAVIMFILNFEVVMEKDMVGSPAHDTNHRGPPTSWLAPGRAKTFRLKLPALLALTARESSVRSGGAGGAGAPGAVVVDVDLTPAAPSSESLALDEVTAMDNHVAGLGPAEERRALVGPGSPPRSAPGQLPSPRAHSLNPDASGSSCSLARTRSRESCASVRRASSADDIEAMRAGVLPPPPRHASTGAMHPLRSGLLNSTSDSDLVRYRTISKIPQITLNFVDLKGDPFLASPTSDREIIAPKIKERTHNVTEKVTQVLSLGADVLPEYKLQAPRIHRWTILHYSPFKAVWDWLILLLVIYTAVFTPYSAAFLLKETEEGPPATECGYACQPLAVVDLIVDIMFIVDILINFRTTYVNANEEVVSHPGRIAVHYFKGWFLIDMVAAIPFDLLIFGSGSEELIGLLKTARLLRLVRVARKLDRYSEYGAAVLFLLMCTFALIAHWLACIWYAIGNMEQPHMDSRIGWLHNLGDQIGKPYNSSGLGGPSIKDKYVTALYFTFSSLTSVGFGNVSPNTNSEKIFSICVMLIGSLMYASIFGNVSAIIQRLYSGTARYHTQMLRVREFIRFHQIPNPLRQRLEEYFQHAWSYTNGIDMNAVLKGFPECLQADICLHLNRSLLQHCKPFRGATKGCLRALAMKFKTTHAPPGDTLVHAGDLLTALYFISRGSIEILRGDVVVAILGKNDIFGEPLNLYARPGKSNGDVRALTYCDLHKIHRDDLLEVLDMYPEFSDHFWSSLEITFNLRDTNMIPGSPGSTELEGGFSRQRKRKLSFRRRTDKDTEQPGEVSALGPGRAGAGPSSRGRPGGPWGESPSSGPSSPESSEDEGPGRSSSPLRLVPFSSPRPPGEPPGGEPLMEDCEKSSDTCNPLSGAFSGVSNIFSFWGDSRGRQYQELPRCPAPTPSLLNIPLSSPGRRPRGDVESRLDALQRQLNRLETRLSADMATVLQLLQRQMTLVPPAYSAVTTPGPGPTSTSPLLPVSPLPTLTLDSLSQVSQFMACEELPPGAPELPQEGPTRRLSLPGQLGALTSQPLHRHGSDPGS

Glucocorticoid receptor [4] = biological target: T1, Glucocorticoid receptor
Description: Binding affinity to human glucocorticoid receptor by fluorescence polarization competitive binding assay

[5] = Inhibition of NMDA receptor at 1 uM
[6] = biological target: Histamine H1 receptor (Homo sapiens) (UniProt P35367); test: Inhibition of histamine H1 receptor at 1 uM
Sequence of Histamine H1 receptor (Homo sapiens) (P35367 whole entry): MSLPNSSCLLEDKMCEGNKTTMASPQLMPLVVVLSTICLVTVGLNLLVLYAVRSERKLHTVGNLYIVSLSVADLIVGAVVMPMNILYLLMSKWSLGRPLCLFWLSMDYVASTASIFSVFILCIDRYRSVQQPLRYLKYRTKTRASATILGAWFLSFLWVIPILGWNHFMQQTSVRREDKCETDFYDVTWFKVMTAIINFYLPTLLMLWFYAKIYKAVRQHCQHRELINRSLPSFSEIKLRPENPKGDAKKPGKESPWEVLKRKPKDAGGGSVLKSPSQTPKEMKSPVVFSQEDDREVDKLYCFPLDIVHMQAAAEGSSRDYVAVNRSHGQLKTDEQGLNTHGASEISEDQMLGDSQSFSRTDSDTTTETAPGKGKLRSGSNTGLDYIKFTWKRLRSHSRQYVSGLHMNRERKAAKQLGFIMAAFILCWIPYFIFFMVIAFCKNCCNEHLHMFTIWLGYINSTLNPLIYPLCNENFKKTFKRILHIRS

[7] = Inhibition of central imidazoline I2 receptor at 1 uM
[8] = biological target: T2, Muscarinic acetylcholine receptor M2 (Homo sapiens) (UniProt P08172); test: Inhibition of muscarinic M2 receptor at 1 uM
T2 sequence (whole entry): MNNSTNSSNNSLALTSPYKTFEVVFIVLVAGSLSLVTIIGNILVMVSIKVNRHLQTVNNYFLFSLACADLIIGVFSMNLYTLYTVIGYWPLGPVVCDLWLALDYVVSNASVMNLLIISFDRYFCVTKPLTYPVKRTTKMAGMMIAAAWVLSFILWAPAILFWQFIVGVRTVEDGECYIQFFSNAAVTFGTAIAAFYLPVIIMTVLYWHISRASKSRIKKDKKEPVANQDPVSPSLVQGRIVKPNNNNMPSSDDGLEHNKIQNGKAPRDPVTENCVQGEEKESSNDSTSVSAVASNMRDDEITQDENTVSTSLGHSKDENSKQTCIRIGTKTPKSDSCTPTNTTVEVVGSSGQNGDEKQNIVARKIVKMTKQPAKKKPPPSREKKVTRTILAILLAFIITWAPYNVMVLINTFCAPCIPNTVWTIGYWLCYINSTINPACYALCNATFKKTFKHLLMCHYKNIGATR

[9] = biological target: Muscarinic acetylcholine receptor M3 (Homo sapiens) (UniProt P20309); test: Inhibition of muscarinic M3 receptor at 1 uM
Sequence of Muscarinic acetylcholine receptor M3 (Homo sapiens) (P20309 whole entry, looked up): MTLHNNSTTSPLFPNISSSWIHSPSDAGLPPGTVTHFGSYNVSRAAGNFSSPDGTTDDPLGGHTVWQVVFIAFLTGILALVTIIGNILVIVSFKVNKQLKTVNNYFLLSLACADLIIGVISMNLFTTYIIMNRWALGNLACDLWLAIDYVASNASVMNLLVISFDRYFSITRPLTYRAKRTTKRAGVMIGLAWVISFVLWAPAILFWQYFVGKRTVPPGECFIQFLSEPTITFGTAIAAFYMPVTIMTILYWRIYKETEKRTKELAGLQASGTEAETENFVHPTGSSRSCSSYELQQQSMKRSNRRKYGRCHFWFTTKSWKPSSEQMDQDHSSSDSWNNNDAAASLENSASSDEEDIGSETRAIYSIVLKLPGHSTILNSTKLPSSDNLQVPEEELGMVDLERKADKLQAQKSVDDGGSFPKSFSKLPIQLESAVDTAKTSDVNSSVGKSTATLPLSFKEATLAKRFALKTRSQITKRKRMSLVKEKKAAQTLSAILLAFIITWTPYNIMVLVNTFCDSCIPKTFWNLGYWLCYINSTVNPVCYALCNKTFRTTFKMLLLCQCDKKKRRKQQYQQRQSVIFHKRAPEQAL

[10] = Inhibition of nicotinic acetylcholine receptor at 1 uM
[11] = Inhibition of nicotinic bungarotoxin-sensitive acetylcholine receptor at 1 uM
[12] = biological target: Mu-type opioid receptor (Homo sapiens) (UniProt P35372); test: Inhibition of mu opioid receptor at 1 uM
[13] = Inhibition of ATP-sensitive potassium channel at 1 uM
[14] = biological target: Prostaglandin E2 receptor EP4 subtype (Homo sapiens) (UniProt P35408); test: Inhibition of prostanoid EP4 receptor at 1 uM
Sequence of Prostaglandin E2 receptor EP4 subtype (Homo sapiens) (P35408 whole entry): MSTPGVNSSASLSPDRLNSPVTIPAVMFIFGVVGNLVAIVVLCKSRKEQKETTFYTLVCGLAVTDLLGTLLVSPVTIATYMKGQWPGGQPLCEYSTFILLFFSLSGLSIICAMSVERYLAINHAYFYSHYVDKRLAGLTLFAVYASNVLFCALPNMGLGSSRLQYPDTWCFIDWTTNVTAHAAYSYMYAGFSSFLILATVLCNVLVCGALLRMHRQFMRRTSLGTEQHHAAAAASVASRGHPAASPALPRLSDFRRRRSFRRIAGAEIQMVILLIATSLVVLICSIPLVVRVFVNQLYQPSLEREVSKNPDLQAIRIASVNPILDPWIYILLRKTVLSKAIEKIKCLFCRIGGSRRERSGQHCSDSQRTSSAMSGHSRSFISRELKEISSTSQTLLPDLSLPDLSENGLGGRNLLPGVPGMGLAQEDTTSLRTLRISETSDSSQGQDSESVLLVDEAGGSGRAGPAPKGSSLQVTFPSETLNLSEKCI

[15] = Inhibition of rolipram binding site at 1 uM
[16] = biological target: Sigma non-opioid intracellular receptor 1 (Homo sapiens) (UniProt Q99720); test: Inhibition of sigma 1 receptor at 1 uM
Sequence of Sigma non-opioid intracellular receptor 1 (Homo sapiens) (Q99720 whole entry): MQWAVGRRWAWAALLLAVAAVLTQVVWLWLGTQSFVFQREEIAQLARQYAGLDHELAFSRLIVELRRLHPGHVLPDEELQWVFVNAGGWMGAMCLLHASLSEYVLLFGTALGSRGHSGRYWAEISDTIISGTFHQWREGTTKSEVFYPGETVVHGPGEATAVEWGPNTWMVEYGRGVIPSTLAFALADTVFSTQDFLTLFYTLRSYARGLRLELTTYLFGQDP

[17] = Inhibition of sigma 2 receptor at 1 uM
[18] = Inhibition of sodium channel site 2 at 1 uM
[19] = biological target: Sodium-dependent noradrenaline transporter (Homo sapiens) (UniProt P23975); test: Inhibition of norepinephrine transporter at 1 uM
[20] = Inhibition of phorbol ester site of PKC at 1 uM
[21] = Inhibition of phencyclidine receptor at 1 uM
[22] = Selectivity for human glucocorticoid receptor over ERalpha
[23] = Selectivity for human glucocorticoid receptor over ERbeta
[24] = Selectivity for human glucocorticoid receptor over progesterone receptor
[25] = Selectivity for human glucocorticoid receptor over androgen receptor
[26] = biological target: Beta-1 adrenergic receptor (Homo sapiens) (UniProt P08588); test: Inhibition of adrenergic beta-1 receptor at 1 uM
[27] = biological target: T3, Adenosine receptor A1 (Homo sapiens) (UniProt P30542); test: Inhibition of adenosine A1 receptor at 1 uM
T3 sequence (whole entry): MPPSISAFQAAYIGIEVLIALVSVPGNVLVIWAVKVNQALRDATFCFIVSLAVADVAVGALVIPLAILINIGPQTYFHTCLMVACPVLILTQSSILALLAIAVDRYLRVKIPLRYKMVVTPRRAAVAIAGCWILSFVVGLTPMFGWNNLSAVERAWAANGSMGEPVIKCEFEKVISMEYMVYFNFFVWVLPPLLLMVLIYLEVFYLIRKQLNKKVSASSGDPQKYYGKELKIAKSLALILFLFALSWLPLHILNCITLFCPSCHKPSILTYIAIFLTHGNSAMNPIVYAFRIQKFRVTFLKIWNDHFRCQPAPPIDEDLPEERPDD

[28] = biological target: Adenosine receptor A2a (Homo sapiens) (UniProt P29274); test: Inhibition of adenosine A2A receptor at 1 uM
Sequence of Adenosine receptor A2a (Homo sapiens) (P29274 whole entry): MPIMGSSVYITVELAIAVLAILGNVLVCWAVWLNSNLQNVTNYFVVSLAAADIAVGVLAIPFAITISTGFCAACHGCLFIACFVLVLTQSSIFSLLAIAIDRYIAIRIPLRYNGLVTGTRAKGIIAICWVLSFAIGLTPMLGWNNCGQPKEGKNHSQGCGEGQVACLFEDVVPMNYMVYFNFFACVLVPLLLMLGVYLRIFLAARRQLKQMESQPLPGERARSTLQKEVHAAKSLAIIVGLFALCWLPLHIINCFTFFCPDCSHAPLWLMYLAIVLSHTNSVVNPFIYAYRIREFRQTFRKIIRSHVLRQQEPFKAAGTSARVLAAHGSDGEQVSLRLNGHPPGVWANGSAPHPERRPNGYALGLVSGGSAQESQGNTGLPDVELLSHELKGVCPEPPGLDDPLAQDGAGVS

[29] = biological target: T4, Alpha-1A adrenergic receptor (Homo sapiens) (UniProt P35348); test: Inhibition of adrenergic alpha1A receptor at 1 uM
T4 sequence (whole entry): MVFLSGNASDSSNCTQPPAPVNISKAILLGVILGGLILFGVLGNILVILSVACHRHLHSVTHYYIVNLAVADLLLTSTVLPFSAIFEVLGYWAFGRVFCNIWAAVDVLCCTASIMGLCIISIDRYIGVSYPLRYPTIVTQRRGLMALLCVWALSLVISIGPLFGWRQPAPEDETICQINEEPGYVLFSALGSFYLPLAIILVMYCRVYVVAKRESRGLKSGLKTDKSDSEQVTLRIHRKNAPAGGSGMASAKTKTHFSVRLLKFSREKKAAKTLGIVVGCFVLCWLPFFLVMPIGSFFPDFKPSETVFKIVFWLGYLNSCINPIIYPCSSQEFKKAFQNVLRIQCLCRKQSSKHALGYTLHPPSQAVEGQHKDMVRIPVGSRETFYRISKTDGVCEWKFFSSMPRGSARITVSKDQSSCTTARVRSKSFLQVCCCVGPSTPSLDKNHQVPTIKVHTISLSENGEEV

[30] = biological target: T5, Alpha-1B adrenergic receptor (Homo sapiens) (UniProt P35368); test: Inhibition of adrenergic Alpha-1B receptor at 1 uM
T5 sequence (whole entry): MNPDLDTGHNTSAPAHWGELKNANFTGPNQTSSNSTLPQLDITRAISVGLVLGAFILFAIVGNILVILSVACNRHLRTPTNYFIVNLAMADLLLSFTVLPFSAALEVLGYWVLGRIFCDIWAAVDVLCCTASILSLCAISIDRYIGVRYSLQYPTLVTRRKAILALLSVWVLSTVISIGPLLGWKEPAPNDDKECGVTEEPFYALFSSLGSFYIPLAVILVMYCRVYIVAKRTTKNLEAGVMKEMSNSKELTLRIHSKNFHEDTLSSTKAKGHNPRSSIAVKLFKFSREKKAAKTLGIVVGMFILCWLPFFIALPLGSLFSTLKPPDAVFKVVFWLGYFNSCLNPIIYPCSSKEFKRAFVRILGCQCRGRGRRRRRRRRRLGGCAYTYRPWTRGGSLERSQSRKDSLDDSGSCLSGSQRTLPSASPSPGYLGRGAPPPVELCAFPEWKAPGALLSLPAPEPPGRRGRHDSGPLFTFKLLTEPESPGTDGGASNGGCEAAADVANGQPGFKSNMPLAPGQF

[31] = biological target: T6, Alpha-2A adrenergic receptor (Homo sapiens) (UniProt P08913); test: Inhibition of adrenergic alpha2A receptor at 1 uM
T6 sequence (whole entry): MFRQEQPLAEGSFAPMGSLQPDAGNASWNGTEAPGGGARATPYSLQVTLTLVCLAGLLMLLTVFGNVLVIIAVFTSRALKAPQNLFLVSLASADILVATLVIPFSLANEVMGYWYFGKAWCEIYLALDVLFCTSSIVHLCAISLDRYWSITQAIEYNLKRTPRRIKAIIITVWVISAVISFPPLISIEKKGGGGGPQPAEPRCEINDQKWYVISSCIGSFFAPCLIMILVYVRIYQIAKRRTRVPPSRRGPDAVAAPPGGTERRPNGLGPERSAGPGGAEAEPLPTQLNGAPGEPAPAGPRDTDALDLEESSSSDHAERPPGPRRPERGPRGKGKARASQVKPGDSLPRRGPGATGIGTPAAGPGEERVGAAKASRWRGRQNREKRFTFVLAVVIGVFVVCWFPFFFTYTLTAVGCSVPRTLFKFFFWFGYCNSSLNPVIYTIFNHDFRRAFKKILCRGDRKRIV

[32] = biological target: Beta-2 adrenergic receptor (Homo sapiens) (UniProt P07550); test: Inhibition of adrenergic beta2 receptor at 1 uM
Sequence of Beta-2 adrenergic receptor (Homo sapiens) (P07550 whole entry, looked up): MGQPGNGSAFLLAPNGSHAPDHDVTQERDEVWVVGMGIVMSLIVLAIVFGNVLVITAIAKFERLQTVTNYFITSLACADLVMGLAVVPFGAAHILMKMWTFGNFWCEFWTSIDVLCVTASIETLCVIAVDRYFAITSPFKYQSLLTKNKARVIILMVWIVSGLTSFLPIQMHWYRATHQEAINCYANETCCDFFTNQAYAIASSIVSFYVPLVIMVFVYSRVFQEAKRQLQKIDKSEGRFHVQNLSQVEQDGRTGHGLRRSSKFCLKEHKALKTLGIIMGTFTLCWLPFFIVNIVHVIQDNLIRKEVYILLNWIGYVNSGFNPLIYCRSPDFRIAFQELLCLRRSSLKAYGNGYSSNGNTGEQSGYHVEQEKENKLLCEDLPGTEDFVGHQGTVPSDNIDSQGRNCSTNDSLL

[33] = Inhibition of calcium channel L type dihydropyridine binding site at 1 uM
[34] = biological target: D(1A) dopamine receptor (Homo sapiens) (UniProt P21728); test: Inhibition of dopamine D1 receptor at 1 uM
[35] = biological target: D(2) dopamine receptor (Homo sapiens) (UniProt P14416); test: Inhibition of dopamine D2S receptor at 1 uM
[36] = Inhibition of GABAA receptor agonist site at 1 uM; format: functional
[37] = Inhibition of central benzodiazepine receptor at 1 uM

Sequence of hERG (KCNH2) (Q12809 whole entry): as the sequence (Q12809 whole entry) above

N#Cc1cc(C(O)(c2ccc3c(cnn3-c3ccc(F)cc3)c2)C(F)(F)F)ccc1F (single isomer, unassigned; (-)) [listing 1 of 2 here]
Not Active: EC50 (Glucocorticoid receptor [2])
112 nM: EC50 (Glucocorticoid receptor [1])
< 50%: inhibition at 1 µM (hERG (KCNH2))
> 10000 nM: IC50 [3]
54 nM: IC50 (Glucocorticoid receptor [4])

N#Cc1cc(C(O)(c2ccc3c(cnn3-c3ccc(F)cc3)c2)C(F)(F)F)ccc1F (single isomer, unassigned; (-)) [listing 2 of 2 here]
< 50%: inhibition [5] | inhibition [6] | inhibition [7] | inhibition [8] | inhibition [9] | inhibition [10] | inhibition [11] | inhibition [12] | inhibition [13] | inhibition [14] | inhibition [15] | inhibition [16] | inhibition [17] | inhibition [18] | inhibition [19] | inhibition [20] | inhibition [21] | inhibition [26] | inhibition [27] | inhibition [28] | inhibition [29] | inhibition [30] | inhibition [31] | inhibition [32] | inhibition [33] | inhibition [34] | inhibition [35] | inhibition [36] | inhibition [37]
> 1000: Ratio [22] | Ratio [23] | Ratio [24] | Ratio [25]
